In ChEMBL document CHEMBL2073846, “Pharmacokinetic study of the hepatobiliary transport of indomethacin” (Pharm Res, 2000):

Columns and labels:
[1] = molecular target: T1, ATP-binding cassette sub-family C member 2 (Rattus norvegicus, UniProt Q63120); assay: TP_TRANSPORTER: biliary excretion in SD rat; format: functional, organism-based, Sprague-Dawley, Bile; settings: in vivo
[2] = molecular target: T1, ATP-binding cassette sub-family C member 2; assay: TP_TRANSPORTER: biliary excretion in EHBR rat; format: functional, organism-based, Bile; settings: in vivo
[3] = molecular target: T2, Solute carrier organic anion transporter family member 1A1 (Rattus norvegicus, UniProt P46720); assay: TP_TRANSPORTER: uptake in Oatp1-expressing COS-7 cells; format: functional, cell-based; settings: monkey
T2 sequence (P46720 whole entry): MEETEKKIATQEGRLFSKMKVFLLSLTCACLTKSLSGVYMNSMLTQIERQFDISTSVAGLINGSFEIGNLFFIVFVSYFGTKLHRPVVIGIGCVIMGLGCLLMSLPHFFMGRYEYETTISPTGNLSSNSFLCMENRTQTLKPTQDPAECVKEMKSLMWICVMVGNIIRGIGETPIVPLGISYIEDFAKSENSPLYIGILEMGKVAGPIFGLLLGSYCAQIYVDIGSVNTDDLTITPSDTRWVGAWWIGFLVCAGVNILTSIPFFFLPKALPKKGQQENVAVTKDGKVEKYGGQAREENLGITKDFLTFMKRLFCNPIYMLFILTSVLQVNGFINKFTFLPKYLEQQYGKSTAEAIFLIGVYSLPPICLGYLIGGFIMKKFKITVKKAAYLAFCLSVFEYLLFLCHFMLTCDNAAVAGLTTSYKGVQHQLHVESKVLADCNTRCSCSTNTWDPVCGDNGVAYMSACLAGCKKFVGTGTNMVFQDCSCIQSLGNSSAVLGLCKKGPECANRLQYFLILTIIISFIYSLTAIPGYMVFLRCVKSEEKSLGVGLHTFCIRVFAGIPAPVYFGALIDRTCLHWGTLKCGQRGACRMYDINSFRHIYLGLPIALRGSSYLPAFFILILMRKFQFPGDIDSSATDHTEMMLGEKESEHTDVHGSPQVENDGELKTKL

[4] = molecular target: T3, Hepatic sodium/bile acid cotransporter (Rattus norvegicus, UniProt P26435); assay: TP_TRANSPORTER: uptake in Ntcp-expressing COS-7 cells; format: functional, cell-based; settings: monkey
T3 sequence (P26435 whole entry): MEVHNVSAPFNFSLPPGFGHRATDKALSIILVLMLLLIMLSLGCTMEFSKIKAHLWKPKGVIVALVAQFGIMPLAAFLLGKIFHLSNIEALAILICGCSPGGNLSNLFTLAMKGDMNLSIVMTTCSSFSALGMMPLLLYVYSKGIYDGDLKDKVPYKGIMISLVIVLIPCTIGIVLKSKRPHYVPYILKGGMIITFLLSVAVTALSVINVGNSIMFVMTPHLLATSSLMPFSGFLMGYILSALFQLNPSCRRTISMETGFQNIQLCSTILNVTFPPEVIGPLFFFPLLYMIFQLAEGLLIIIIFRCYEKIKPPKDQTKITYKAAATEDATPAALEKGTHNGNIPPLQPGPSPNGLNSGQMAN

T1 sequence (Q63120 whole entry): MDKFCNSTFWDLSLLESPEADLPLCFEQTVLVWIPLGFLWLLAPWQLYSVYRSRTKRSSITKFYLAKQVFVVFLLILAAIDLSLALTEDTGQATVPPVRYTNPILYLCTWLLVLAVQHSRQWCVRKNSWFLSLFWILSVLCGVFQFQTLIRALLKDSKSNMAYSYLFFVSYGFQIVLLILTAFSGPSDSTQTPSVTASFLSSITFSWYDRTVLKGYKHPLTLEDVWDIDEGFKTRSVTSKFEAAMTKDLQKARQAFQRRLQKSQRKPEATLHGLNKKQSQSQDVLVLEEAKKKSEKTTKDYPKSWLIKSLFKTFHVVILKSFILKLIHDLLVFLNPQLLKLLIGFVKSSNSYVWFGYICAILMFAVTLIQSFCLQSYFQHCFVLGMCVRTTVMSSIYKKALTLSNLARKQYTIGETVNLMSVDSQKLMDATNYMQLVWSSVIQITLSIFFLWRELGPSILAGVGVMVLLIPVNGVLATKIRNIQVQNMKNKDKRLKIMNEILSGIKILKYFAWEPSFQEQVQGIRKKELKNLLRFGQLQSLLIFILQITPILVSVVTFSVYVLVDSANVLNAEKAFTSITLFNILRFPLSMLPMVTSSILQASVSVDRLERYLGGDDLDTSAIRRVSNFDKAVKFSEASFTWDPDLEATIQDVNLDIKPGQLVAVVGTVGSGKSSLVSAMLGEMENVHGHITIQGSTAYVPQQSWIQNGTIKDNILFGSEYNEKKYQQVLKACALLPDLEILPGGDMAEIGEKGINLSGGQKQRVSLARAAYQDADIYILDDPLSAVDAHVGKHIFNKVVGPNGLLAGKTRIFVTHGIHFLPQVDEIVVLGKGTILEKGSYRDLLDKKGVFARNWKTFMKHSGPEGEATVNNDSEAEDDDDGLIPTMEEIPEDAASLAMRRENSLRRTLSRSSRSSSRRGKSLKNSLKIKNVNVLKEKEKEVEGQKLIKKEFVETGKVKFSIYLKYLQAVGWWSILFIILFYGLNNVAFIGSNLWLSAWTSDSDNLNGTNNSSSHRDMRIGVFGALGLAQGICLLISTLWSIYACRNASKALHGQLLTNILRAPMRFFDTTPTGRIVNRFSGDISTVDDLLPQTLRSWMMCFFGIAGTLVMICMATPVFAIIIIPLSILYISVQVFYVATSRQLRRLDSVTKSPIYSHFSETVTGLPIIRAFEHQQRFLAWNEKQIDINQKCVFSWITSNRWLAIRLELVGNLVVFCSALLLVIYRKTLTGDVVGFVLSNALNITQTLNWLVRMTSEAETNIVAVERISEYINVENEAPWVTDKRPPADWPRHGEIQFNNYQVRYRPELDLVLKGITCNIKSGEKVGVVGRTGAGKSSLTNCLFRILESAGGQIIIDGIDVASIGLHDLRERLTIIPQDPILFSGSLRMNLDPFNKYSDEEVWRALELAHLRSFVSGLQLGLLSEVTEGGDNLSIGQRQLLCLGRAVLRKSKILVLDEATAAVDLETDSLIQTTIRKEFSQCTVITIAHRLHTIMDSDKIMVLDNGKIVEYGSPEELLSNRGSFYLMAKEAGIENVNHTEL

SMILES	Activity [1]	Activity [2]	Activity [3]	Activity [4]
COc1ccc2c(c1)c(CC(=O)O[C@@H]1O[C@H](C(=O)O)[C@@H](O)[C@H](O)[C@H]1O)c(C)n2C(=O)c1ccc(Cl)cc1 [INDOMETHACIN GLUCURONIDE]	substrate [+]	substrate [+]		
COc1ccc2c(c1)c(CC(=O)O)c(C)n2C(=O)c1ccc(Cl)cc1 [INDOMETHACIN]	is not a substrate [-]	is not a substrate [-]	is not a substrate [-]	is not a substrate [-]
